For data set [1], the target named is T1, Insulin receptor substrate 1 (Homo sapiens) (UniProt P35568).
T1 sequence (whole entry): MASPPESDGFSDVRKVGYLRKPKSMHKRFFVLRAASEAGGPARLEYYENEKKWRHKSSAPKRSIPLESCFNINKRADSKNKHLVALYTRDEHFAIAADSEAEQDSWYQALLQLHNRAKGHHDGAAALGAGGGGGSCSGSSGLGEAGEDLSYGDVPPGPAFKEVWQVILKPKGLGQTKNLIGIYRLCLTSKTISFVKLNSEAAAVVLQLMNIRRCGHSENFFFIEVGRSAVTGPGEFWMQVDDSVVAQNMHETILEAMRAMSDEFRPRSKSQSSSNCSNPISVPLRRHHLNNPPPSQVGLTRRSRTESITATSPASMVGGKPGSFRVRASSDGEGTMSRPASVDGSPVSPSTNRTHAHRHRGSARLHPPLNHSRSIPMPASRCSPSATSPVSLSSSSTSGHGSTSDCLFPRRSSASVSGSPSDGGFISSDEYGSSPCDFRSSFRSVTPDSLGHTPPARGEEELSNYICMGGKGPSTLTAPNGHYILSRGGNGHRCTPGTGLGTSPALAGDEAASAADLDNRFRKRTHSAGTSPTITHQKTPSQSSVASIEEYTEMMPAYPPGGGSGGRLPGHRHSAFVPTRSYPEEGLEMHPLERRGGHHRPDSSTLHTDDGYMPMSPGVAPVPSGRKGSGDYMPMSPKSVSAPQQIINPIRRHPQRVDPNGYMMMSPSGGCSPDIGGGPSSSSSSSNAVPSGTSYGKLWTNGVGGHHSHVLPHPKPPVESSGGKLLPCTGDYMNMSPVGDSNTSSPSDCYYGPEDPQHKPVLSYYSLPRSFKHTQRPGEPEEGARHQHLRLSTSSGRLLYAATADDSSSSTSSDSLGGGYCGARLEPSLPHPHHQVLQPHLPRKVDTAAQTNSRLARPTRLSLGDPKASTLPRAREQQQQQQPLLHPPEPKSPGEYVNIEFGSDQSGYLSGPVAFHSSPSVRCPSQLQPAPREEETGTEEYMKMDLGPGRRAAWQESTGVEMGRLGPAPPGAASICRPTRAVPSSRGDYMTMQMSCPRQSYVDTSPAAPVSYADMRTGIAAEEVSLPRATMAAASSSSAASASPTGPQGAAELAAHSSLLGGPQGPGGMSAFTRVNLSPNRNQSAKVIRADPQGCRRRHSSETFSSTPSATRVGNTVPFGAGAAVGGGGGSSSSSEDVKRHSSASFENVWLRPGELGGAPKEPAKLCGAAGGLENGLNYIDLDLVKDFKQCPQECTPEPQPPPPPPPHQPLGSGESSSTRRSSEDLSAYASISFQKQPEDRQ
The data set can be described thus: Inhibition of HGF-induced IRS1 phosphorylation in human T47D cells assessed as pSer312 IRS1/total-IRS1 ratio level at 20 uM pre-incubated for 4 hrs before stimulation with HGF for 20 mins (reference value: 100 +/- 0.02%). It is filed as cell-based. Set-up: scale not given: the % may be the effect or the level left.

The target of data set [2] is T2, Insulin receptor substrate 1 (Homo sapiens, UniProt P35568).
T2 sequence (P35568 whole entry): T1 sequence (whole entry)
The data set can be described thus: Binding affinity to recombinant human IRS1 PH domain expressed in Escherichia coli BL21 (DE3) by surface plasmon resonance assay. (In general: In SPR one partner is held on a chip, and binding of the other changes the refractive index at the surface.)

For data set [3], the system named is MCF-10A. The data set can be described thus: Cytotoxicity in human MCF10A cells assessed as reduction in cell viability incubated for 4 days by MTT assay. It is filed as cell-based. The conditions noted are these: 96 h. In general terms: Tetrazolium dyes change colour on reduction, which living cells bring about.
For data set [4], the target named is T3, GRB2-associated-binding protein 1 (Homo sapiens, UniProt Q13480).
T3 sequence (Q13480 whole entry): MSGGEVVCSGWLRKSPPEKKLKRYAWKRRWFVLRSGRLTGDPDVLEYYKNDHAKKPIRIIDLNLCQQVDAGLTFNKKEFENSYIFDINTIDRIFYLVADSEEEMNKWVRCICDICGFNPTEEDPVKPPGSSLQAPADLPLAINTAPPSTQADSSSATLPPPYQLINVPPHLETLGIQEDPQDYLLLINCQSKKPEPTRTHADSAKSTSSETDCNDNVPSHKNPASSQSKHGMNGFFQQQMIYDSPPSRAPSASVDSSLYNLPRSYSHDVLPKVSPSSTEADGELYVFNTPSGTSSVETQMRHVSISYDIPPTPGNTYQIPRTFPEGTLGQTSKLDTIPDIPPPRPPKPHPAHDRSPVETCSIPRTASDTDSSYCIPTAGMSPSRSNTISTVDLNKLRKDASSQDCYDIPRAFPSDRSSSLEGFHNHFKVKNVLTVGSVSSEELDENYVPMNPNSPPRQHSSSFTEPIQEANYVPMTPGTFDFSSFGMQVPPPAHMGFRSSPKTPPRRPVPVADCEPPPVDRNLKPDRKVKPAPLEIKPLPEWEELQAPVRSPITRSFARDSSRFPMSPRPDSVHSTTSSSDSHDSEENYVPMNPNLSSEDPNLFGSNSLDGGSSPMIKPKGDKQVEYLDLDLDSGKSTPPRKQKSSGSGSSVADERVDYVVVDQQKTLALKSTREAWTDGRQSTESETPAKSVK
The data set can be described thus: Binding affinity to recombinant human GAB1 PH domain expressed in Escherichia coli BL21 (DE3) by surface plasmon resonance assay.

The subject of another data set is T47D. The data set can be described thus: Cytotoxicity in human T47D cells assessed as reduction in cell viability incubated for 4 days by MTT assay. Type of data set: functional, cell-based.
The next data set concerns MDA-MB-231. The data set can be described thus: Cytotoxicity in human MDA-MB-231 cells assessed as reduction in cell viability incubated for 4 days by MTT assay. It is filed as functional, cell-based.
Data set [5] concerns MCF-10A. The data set can be described thus: Cytotoxicity in human MCF10A cells assessed as reduction in cell viability at 100 uM incubated for 4 days by MTT assay. It is filed as cell-based. The conditions noted are these: 96 h.
Data set [6] deals with T4, GRB2-associated-binding protein 1 (Homo sapiens) (UniProt Q13480).
T4 sequence (whole entry): T3 sequence (Q13480 whole entry)
The data set can be described thus: Inhibition of HGF-stimulated GAB1 Y627 phosphorylation in human T47D cells at 20 uM pre-incubated for 4 hrs before stimulation with HGF for 20 mins. It is filed as cell-based.

The Kd is a measure of binding affinity in units of concentration. For `CCCCCCCCCCCCc1ccc(S(=O)(=O)Nc2nnc(S(N)(=O)=O)s2)cc1`, the Activity in data set [1] worked out at 115%. Moreover, the equilibrium dissociation constant (Kd) entry in data set [2] is “Not Active”.
For the compound `CS(=O)(=O)CCSc1ncccc1C(=O)Sc1ccc(Cl)cc1Cl`, the Activity result was “Non-Toxic” in the data set on MCF-10A [3] and 79.7% in data set [1]. The Kd in data set [2] (read-out: Kd) came to 1.6 µM; in data set [4] (read-out: Kd), 42.3 µM.
Take `Cn1cnc(S(=O)(=O)Nc2ccccc2SCCS(=O)(=O)c2ccc(Cl)cc2)c1`: the Activity in data set [1] came to 83.2%. Further, the dissociation constant (Kd) in data set [2] (read-out: Kd) stood at 16.4 µM; in data set [4] (read-out: Kd), 2.1 µM.
On to `Cc1onc(-c2ccccc2)c1-c1nc(CSc2nc3ccccc3[nH]2)no1`, for which the Activity in data set [1] stood at 31.1%. In addition, the values for the Kd in data set [2] (read-out: Kd) and in data set [4] were 0.12 µM and “Not Active”, respectively.
Regarding `Cn1c(Cc2ccsc2)nnc1SCC(=O)Nc1cc(Cl)cc(Cl)c1`, the Activity in data set [1] stood at 84.8%. For the same compound, the IC50 result in the data set with T47D and in the data set on MDA-MB-231 was “Not Active” each time. In addition, the Kd result in data set [2] and in data set [4] was “Not Active” throughout.
As for `CCCCCCCCCCCCc1ccc(S(=O)(=O)Nc2nncs2)cc1`, the Activity in data set [1] was found to be 61.3%. For the same compound, the Kd in data set [4] (read-out: Kd) is 1.33 µM.
For the compound `CCCCCCCCCCCCc1ccc(S(=O)(=O)Nc2nnc(CC(=O)O)s2)cc1`, the Activity in data set [1] was determined as 69%. Also, the equilibrium dissociation constant (Kd) in data set [2] (read-out: Kd) amounted to 0.05 µM.
For the compound `COc1cc(NS(=O)(=O)c2ccc(NS(=O)(=O)c3c(C)noc3C)cc2)nc(OC)n1`, the Activity in data set [1] is 91.7%; with MCF-10A [5], “Non-Toxic”. For the same compound, the IC50 entry in the data set with T47D and in the data set with MDA-MB-231 was “Not Active” in each case. Moreover, the Kd result in data set [2] and in data set [4] was “Not Active” each time.
On to `Cc1cc2ncc(-c3cnc(SCCS(=O)(=O)c4ccc(Cl)cc4)nc3)c(C)n2n1`, for which the Activity in data set [1] was determined as 98.2%. For the same compound, the Kd result in data set [2] and in data set [4] was “Not Active” throughout.
Consider `O=S(=O)(NCc1csc2ccc(Cl)cc12)c1cc(S(=O)(=O)c2ccccc2)cs1`, for which the Activity entry is “Non-Toxic” in the data set on MCF-10A [3] and 46.5% in data set [1]. Further, the Kd entry in data set [2] is “Not Active”.
Broadly, the inhibition is the percentage by which the read-out fell short of the control. Regarding `CCCCCCCCCCCCCCCCCCOC[C@H](COP(=O)(O)O[C@H]1[C@H](O)[C@@H](O)[C@H](O)C[C@H]1O)OC`, the inhibition in data set [6] stood at 72%. For the same compound, the Activity in data set [1] is 116%.
As for `CCCCCCCCCCCCc1ccc(S(=O)(=O)Nc2nnc(C(=O)OCC)s2)cc1`, the figures for the Activity result (with MCF-10A [3]; in data set [1]) were “Non-Toxic” and 78.4%, respectively. In data set [6], this compound registered an inhibition of 82%. Moreover, the dissociation constant Kd in data set [2] (read-out: Kd) was found to be 0.05 µM; in data set [4] (read-out: Kd), 0.68 µM.
On to `CS(=O)(=NS(=O)(=O)c1ccc(-c2ccccn2)s1)c1ccc(Cl)cc1` (stereo unspecified), for which the Activity in data set [1] stood at 102%. Further, the IC50 entry in the data set on T47D and with MDA-MB-231 was “Not Active” throughout. In addition, the equilibrium dissociation constant (Kd) result in data set [2] and in data set [4] was “Not Active” each time.
Turning to `Cc1nc(-c2ccc(S(=O)(=O)N3CCN(C4c5ccccc5-c5ccccc54)CC3)s2)cs1`, the Activity in data set [1] came to 98.7%.
On to `Cc1noc(C)c1NC(=O)NCc1csc(-c2cccs2)n1`, for which the Activity in data set [1] is 100%. Besides, the equilibrium dissociation constant (Kd) result in data set [2] and in data set [4] was “Not Active” each time.
For `O=c1[nH]nc(SCc2csc(-c3ccccc3)n2)n1Cc1ccco1`, the Activity entry in the data set with MCF-10A [3] is “Non-Toxic”; in data set [1], 40.7%. The Kd entry is “Not Active” in data set [2] and 2.2 µM in data set [4] (read-out: Kd).
On to `CCCCCCCCCCCCc1ccc(S(=O)(=O)Nc2nnc(CC(=O)OCC)s2)cc1`, for which the Activity entry in the data set with MCF-10A [3] is “Non-Toxic”; in data set [1], 60.6%. For the same compound, the inhibition in data set [6] was determined as 96%. The figures for the Kd in data set [2] (read-out: Kd) and in data set [4] (read-out: Kd) were 0.15 µM and 0.9 µM, respectively.
On to `Cc1nnc(NS(=O)(=O)c2ccc(NS(=O)(=O)c3ccc4ccccc4c3)cc2)s1`, for which, in data set [1], the Activity came out at 89.9%. Moreover, the dissociation constant (Kd) entry in data set [2] and in data set [4] was “Not Active” in each case.
For `O=S(=O)(NCc1csc(-c2cccs2)n1)c1ccc(N2CCOCC2)nc1`, the Activity in data set [1] turned out to be 101%. The results for the equilibrium dissociation constant (Kd) in data set [2] (read-out: Kd) and in data set [4] were 16.2 µM and “Not Active”, respectively. Besides, the IC50 result in the data set on MDA-MB-231 was “Not Active”.
As for `CCc1ccc(C(=O)OC)cc1CSc1nnc(-c2ccc(C(F)(F)F)cc2)n1Cc1ccoc1`, the Activity in data set [1] amounted to 64.4%.
With `O=C(O)c1ccccc1C(=O)Nc1ccccc1SCCS(=O)(=O)c1ccc(Cl)cc1`, the Activity in data set [1] is 75.6%; with MCF-10A [5] it was “Non-Toxic”. For the same compound, the dissociation constant (Kd) entry in data set [2] and in data set [4] was “Not Active” throughout. Besides, in the data set on MDA-MB-231, the IC50 entry is listed as “Not Active”.

The values are drawn from ChEMBL document CHEMBL4482310, “Inhibitors of grb2-associated binding protein 1 (gab1) and methods of treating cancer using the same” (2017).
